Experimental data from US6150414A, “Compositions and methods for treating viral infections” (priority 1992, dated 2000).
“And” between values parts separate entries of the source, which are not always exact repeats. Equal entries are not always repeated. Where two headings read alike, the source gives them in different places.

Assays:
[1] = molecular target: T1, Radiation Leukemia Virus reverse transcriptase (Radiation murine leukemia virus, UniProt P11227); test: Radiation Leukemia Virus reverse transcriptase assay, supernatants from infected AQR cells (Examples 4 and 9); format: biochemical; settings: for CPM: replicate; for inhibition at 50 ng / inhibition at 0.0001 mg / inhibition at 0.0005 mg / inhibition at 0.001 mg / inhibition at 0.002 mg / inhibition at 0.005 mg / inhibition at 0.01 mg: 0.5 h; for inhibition at 0.01 mg: read-out: Average % Inhibition
T1 construct: the reverse transcriptase of Radiation Leukemia Virus; endogenous in cells
Method: (§1) Supernatants (10 ml/tube) from B10.T(6R) cells (Meruelo et al. J. Exp. Med. 147: 470-487, 1978) chronically infected with Radiation Leukemia Virus (RadLV) were obtained by centrifugation of cells in culture at 4° C., 3500 rpm for 15 minutes. The top 2/3 of the supernatant were removed and aliquots were incubated for 30 minutes on ice with the indicated amounts of hypericin or protohypericin. […] Thereafter, supernatants were centrifuged at 100,000×g using a TI70 rotor (Beckman Instruments) for 1 hour at 4° C. The pellet was […] and analyzed for reverse transcriptase activity as follows.
(§2) The reverse transcriptase assay was performed in a volume of 100 microliters containing the following components:
The antiviral activity of HHA was tested using AQR (Bach and Meruelo, J. Exp. Med. 160:270-285, 1984) cells chronically infected with Radiation Leukemia Virus in the reverse transcriptase assay as described in Example 3 above.
The assays were conducted using the same procedure as in Example 3 above, using supernatants from infected AQR cells.

Friend Leukemia Virus = test: In vivo inhibition of Friend Leukemia Virus splenomegaly, intravenous 1-2 hours post infection (Example 10); design: species or system mice; settings: Mus musculus, read-out: EC50 for FV-induced splenomegaly
Method: (§3) (3) In vivo inhibition of Friend Leukemia Virus Splenomegaly performed as described in Example 1 above except that the compounds were administered intravenously 1-2 hours post infection.
(§4) The results presented above in Table IX are presented as EC50 concentrations. These are the effective concentrations which inhibit 50% of the viruses in micromolar concentrations.

Friend Virus = test: Friend Virus-induced splenomegaly, WIS compounds (Example 8); format: in vivo, mice; design: Actual Spleen Weight / Average Spleen Weight: unit not given here; settings: for Average % Inhibition / Average Spleen Weight / Actual Spleen Weight: Table VII; for Actual Spleen Weight: single animal
Method: The effects of compositions according to the present invention on the increase in spleen size (splenomegaly) of BALB/c mice (Jackson Labs, Bar Harbor, ME) was examined. In these experiments, the virus (10^6 focus forming units--FFU) was inoculated intravenously and 100 micrograms of the compounds indicated in Table II were administered to the mice intraperitoneally 24 hours later. Each compound was administered once to two mice. The animals were sacrificed ten days later and their spleens weighed.
As used in Table II (and subsequent Tables of this Example l(a) and (b), "average percent inhibition" is calculated as follows: [formula] wherein "ASWNC" designates "average spleen weight of negative control"; "ASWE" designates "average spleen weight of experimental (treated) subject"; and "ASWPC" designates "average spleen weight of positive control". Average spleen weight is the numerical average of spleen weights of each experimental group (in Table II each such group includes two members).
The AAB compounds whose synthesis is described above were assayed for antiviral activity. WIS-2, -3, -4, -5 and -6 were tested to determine their biological effects on Friend Virus-induced splenomegaly using the procedure and technique set forth in Example 1 above. The assay results (three mice per group were tested each at different concentrationss of the active composition except for the PBS-negative control wherein two animals per group were used) are reported in Table VII below.

retroviruses (virions) = test: Direct inactivation of retroviruses (virions) in vitro (Example 10); format: biochemical, Radiation Leukemia Virus; settings: Table IX
Method: as §1, §2
(§5) (1) Direct inactivation of retroviruses in vitro, performed as in Example 3 above;
as §4

retroviruses = test: Comparison over two in vitro and one in vivo biological assays (Example 10)
Method: In order to investigate the structural features of hypericin which are essential for antiretroviral activity, numerous analogs and precursors of hypericin were examined for activity in two in vitro and one in vivo biological assay.
as §5, §3

[2] = Stability to light and pH; format: physicochemical; settings: neutral or acetic pH
[3] = test system: virus budding in virus-producing cells; test: In vitro inhibition of virus budding: production of defective budded virions (Example 10); format: cell-based; settings: in vitro; Table IX; read-out: EC50 for production of defective budded virions
Source text: as §4

SMILES | Average CPM ([1]; 0.05 micrograms, Table VIII) | CPM ([1]; 0.05 micrograms, Table VIII) | Average CPM ([1]; 0.1 micrograms, Table VIII) | CPM ([1]; 0.1 micrograms, Table VIII) | Average CPM ([1]; 0.5 micrograms, Table VIII) | CPM ([1]; 0.5 micrograms, Table VIII) | Average CPM ([1]; 1 microgram, Table VIII) | CPM ([1]; 1 microgram, Table VIII) | Average CPM ([1]; 2 micrograms, Table VIII) | CPM ([1]; 2 micrograms, Table VIII) | Average CPM ([1]; 5 micrograms, Table VIII) | CPM ([1]; 5 micrograms, Table VIII) | Average CPM ([1]; 10 micrograms, Table VIII) | CPM ([1]; 10 micrograms, Table VIII) | inhibition at 50 ng ([1]; 0.05 micrograms, Table VIII) [%] | inhibition at 0.0001 mg ([1]; 0.1 micrograms, Table VIII) [%] | inhibition at 0.0005 mg ([1]; 0.5 micrograms, Table VIII) [%] | inhibition at 0.001 mg ([1]; 1 microgram, Table VIII) [%] | inhibition at 0.002 mg ([1]; 2 micrograms, Table VIII) [%] | inhibition at 0.005 mg ([1]; 5 micrograms, Table VIII) [%] | other results
Cc1cc(O)c2cc3c(O)cc(O)c4c5c(O)cc(O)c6cc7c(O)cc(C)c8c1c2c(c34)c(c78)c65 [WIS-5, desoxyhypericin] | 193,017 CPM | 183,654 CPM and 202,380 CPM | 171,635 CPM | 172,984 CPM and 170,286 CPM | 249,351 CPM | 240,372 CPM and 258,330 CPM | 251,168 CPM | 238,782 CPM and 263,554 CPM | 205,469 CPM | 216,764 CPM and 194,174 CPM | 236,878 CPM | 220,588 CPM and 253,168 CPM | 177,364 CPM | 168,008 CPM and 186,720 CPM | 76.4 | 79 | 69.5 | 69.2 | 74.8 | 71 | inhibition at 0.01 mg ([1]; 10 micrograms, Table VIII): 78.3%; EC50 (Friend Leukemia Virus; i.v. 1-2 hours post infection, Table IX): > 316 µM; Average % Inhibition (Friend Virus; 1 microgram): 5.9%; Average Spleen Weight (Friend Virus; 1 microgram): 0.9197; Actual Spleen Weight (Friend Virus; 1 microgram): 0.9062 and 0.9528 and 0.9001; Average % Inhibition (Friend Virus; 10 micrograms): 6.5%; Average Spleen Weight (Friend Virus; 10 micrograms): 0.9147; Actual Spleen Weight (Friend Virus; 10 micrograms): 0.9126 and 0.8898 and 0.9417; Average % Inhibition (Friend Virus; 50 micrograms): 19.3%; Average Spleen Weight (Friend Virus; 50 micrograms): 0.8134; Actual Spleen Weight (Friend Virus; 50 micrograms): 0.7817 and 0.8389 and 0.8196; Average % Inhibition (Friend Virus; 150 micrograms): 35.2%; Average Spleen Weight (Friend Virus; 150 micrograms): 0.6879; Actual Spleen Weight (Friend Virus; 150 micrograms): 0.6919 and 0.6790 and 0.6927; EC50 (retroviruses (virions)): > 21 µM; loss of antiviral activity relative to parent (retroviruses; Example 10, structural comparison): significant loss of in vivo reverse transcriptase inhibitory activity; stability vs pH [2]: decomposses readily in neutral or acetic pH
O=c1c2c(O)ccc3c4ccc(O)c5c(=O)c6c(O)cc(O)c7c8c(O)cc(O)c1c8c(c23)c(c54)c67 [WIS-3, desmethylhypericin] | 78,424 CPM | 89,170 CPM and 67,678 CPM | 20,893 CPM | 19,322 CPM and 22,464 CPM | 2,799 CPM | 2,630 CPM and 2,968 CPM | 24,606 CPM | 21,896 CPM and 27,316 CPM | 15,467 CPM | 14,020 CPM and 16,914 CPM | 76,907 CPM | 75,776 CPM and 78,038 CPM | 119,248 CPM | 57,512 CPM and 61,736 CPM | 90.4 | 97.4 | 99.7 | 97 | 98.1 | 90.6 | EC50 [3]: 2 µM; inhibition at 0.01 mg [1]: 85.4%; inhibition of RadLV reverse transcriptase activity ([1]; Example 9): highest level of antiviral activity of the compounds that were tested in this assay; EC50 (Friend Leukemia Virus): 174 µM; Average % Inhibition (Friend Virus; 1 microgram): 24.3%; Average Spleen Weight (Friend Virus; 1 microgram): 0.7737; Actual Spleen Weight (Friend Virus; 1 microgram): 0.7527 and 0.8048 and 0.7277; Average % Inhibition (Friend Virus; 10 micrograms): 24.1%; Average Spleen Weight (Friend Virus; 10 micrograms): 0.7759; Actual Spleen Weight (Friend Virus; 10 micrograms): 0.7727 and 0.8108 and 0.7413; Average % Inhibition (Friend Virus; 50 micrograms): 34.7%; Average Spleen Weight (Friend Virus; 50 micrograms): 0.6921; Actual Spleen Weight (Friend Virus; 50 micrograms): 0.6998 and 0.6723 and 0.7041; Average % Inhibition (Friend Virus; 150 micrograms): 79.7%; Average Spleen Weight (Friend Virus; 150 micrograms): 0.3290; Actual Spleen Weight (Friend Virus; 150 micrograms): 0.2967 and 0.3518 and 0.3384; antiviral activity in splenomegaly assay (Friend Virus; Example 8): most active compounds of the group in the splenomegaly assay; EC50 (retroviruses (virions)): 0.07 µM; activity across assays (retroviruses; Example 10): high degree of activity in a more than one assay
